Test results as given in publication PMC5267425, “Identification of small molecule modulators of HIV-1 Tat and Rev protein accumulation” (Retrovirology, 2017).

What was measured:
[1] = tested on: HIV-1 Gag expression in SupT1 NLESG cells; assay: Gag (p24) ELISA in SupT1 24STNLESG cells after PMA induction; assay type: cell-based; settings: for inhibition of HIV-1 gene expression in CD4+ SupT1 cells: Figure S1; for IC50: Human immunodeficiency virus 1, SUP-T1
Experimental: Additional file 1: Figure S1. 791 and 833 Suppress HIV-1 Gene Expression in SupT1 24NESLG Cell Line. a Schematic of HIV-1 provirus used to generated the stably transduced SupT1 cell line. b Effect of 791 and 833 on Gag expression in SupT1 NLESG cells. Cells were treated with indicated concentrations of 791/833 then HIV-1 expression induced by PMA addition. Media harvested after 24 h was subsequently assayed using Gag (p24) ELISA. Cell viability was measured by an XTT assay. 892 was not active in this cell line at the concentrations tested Additional file 2: Figure S7. Effect of compounds on CEM-GXR cell viability. Evaluation of 791, 833, and 892 on CEM-GXR cell viability in the Guava ViaCount assay. Cells were analyzed after 24 h incubation with the compounds at the indicated concentrations ranging between 0–47 μM (791), 0–5 μM (833), or 0–62.5 μM (892). Results are expressed as the percentage (%) of viable cells relative to DMSO treatment ±SEM of two independent experiments performed in triplicate. Cytotoxic concentration resulting in the death of 50% of the host cells (CC50) relative to DMSO measured by ViaCount assay (Millipore) are listed in Table 1 Additional file 3: Table S1. Mutations in HIV-1 proteins associated with resistance to ARVs Additional file 4: Figure S2.Pattern of HIV-1 RNA splicing. Shown at the top is the organization of the HIV-1 proviral genome indicating the position of the multiple 5′ splice donor sites (SD1–SD4) and 3′ splice acceptor sites (SA1–SA7) used in splicing of pre-mRNA. In the middle is an illustration of the alternatively spliced RNAs generated by processing of the HIV-1 genomic RNA. Indicated are the common (open boxes) and alternative exons (closed boxes) used in the generation of the SS (4 kb) and MS (1.8 kb) viral RNAs. At the bottom is a list of the nomenclature used to refer to the exon composition of the individual RNAs generated for both the SS and MS classes of HIV-1 RNAs Additional file 5: Figure S3. Characterization of HeLa rtTA HIVGagGFP cell line. a Representative images of HeLa rtTA HIVGagGFP C7 cells treated with DMSO in the absence (uninduced) or presence (induced) of doxycyclin (N ≥ 3). Cells were viewed at 630X (oil immersion) magnification. Images are cropped to show a representative field of view. b The dose range of the compounds which inhibit HIV-1 GagGFP expression in HeLa rtTA HIVGagGFP C7 cells was measured by mean fluorescence intensity and expressed relative to fluorescence intensity in DMSO-treated samples (N ≥ 3, *p ≤ 0.05, **p ≤ 0.01, and ***p ≤ 0.001). The effect of the compounds on cellular metabolism at the indicated concentrations was measured using an XTT assay as a readout of viable cells and expressed relative to absorbance reads of DMSO-treated samples (N ≥ 3, *p ≤ 0.05, **p ≤ 0.01, and ***p ≤ 0.001). Error bars indicate standard error of the mean (SEM) Additional file 6: Figure S4. […] MG132 (10 μM) was added for 8 h as an additional control to determine whether inhibition of the proteasome prevents protein degradation. All uninduced (unind.) and 0 h samples were treated with DMSO. GAPDH serves as loading control. b Summary of effect of compounds on HIV-1 Tat degradation. Band volume intensities of both p14 and p16 Tat isoforms were calculated for each treatment relative to that of the DMSO control treatment and were then normalized to corresponding GAPDH bands (N ≥ 3, except for 833, N = 1–2). […]

Nap1 = assay: Western blot of Nap1; assay type: cell-based; settings: 791 30 µM, 833 2 µM, 892 15 µM, 24 h
Experimental: ELISA for p24 Gag antigen was performed on cell supernatants using kits purchased from Frederick National Laboratory for Cancer Research (Leidos) or XpressBio extended range kit and performed according to manufacturer’s instructions. Protein concentration in cell lysates was quantified by Bradford assay and equal amounts of protein run on 7, 10, 12, or 14% SDS-PAGE, depending on the protein of interest. Following transfer to PVDF (BioRad or Perkin-Elmer), blots were blocked in either 5% Milk-PBS-T (5% Milk, 0.05% Tween-20, 1× PBS) or 3% BSA-PBS-T (3% BSA, 0.05% Tween-20, 1× PBS) prior to incubating with primary antibody (all diluted in 3% BSA-PBS-T). Primary antibodies used were: purified mouse anti-p24 supernatant from anti-HIV-1 Gag hybridoma 183, mouse anti-gp120 hybridoma 902 (NIH AIDS Reagent Program), mouse monoclonal antibody to HIV-1 Rev (Abcam), rabbit polyclonal antibody to HIV-1 Tat (Abcam), mouse monoclonal antibody to p53 (Santa Cruz), rabbit purified IgG for Nap1 (provided by L. Frappier), rabbit polyclonal antibody to GAPDH (Sigma-Aldrich), or mouse monoclonal antibody to α-Tubulin (Sigma-Aldrich). Following incubation with appropriate secondary antibody, blots were visualized by ECL, ECL Plus (Perkin-Elmer), or Clarity Western ECL substrate (BioRad). Quantification of the relative intensity of the detected bands was done using ImageLab software and normalized to corresponding bands of the loading control (GAPDH or α-Tubulin).

Compound: COc1ccc(C=NNC(=O)c2ccccc2O)cc1O [Compound 892, 2-hydroxy-N′-(3-hydroxy-4-methoxybenzylidene)benzohydrazide]
- inhibition of HIV-1 gene expression in CD4+ SupT1 cells [1]: not active
- reduction of Nap1 expression (Nap1): no effect

Compound: Cc1cc(NCc2cccnc2)n2ncc(-c3ccc(Cl)cc3)c2n1 [Compound 791, 3-(4-chlorophenyl)-5-methyl-N-(3-pyridinylmethyl)pyrazolo[1,5-a]pyrimidin-7-amine]
- inhibition of HIV-1 gene expression in CD4+ SupT1 cells [1]: maintained their inhibition
- IC50 [1]: 26 µM
- reduction of Nap1 expression (Nap1): approximately 50%

Compound: O=C(NC(=S)NNC(=O)c1ccccc1O)c1ccc(-c2ccccc2)cc1 [Compound 833, N-([2-(2-hydroxybenzoyl)hydrazino]carbonothioyl}-4-biphenylcarboxamide]
- inhibition of HIV-1 gene expression in CD4+ SupT1 cells [1]: maintained their inhibition
- IC50 [1]: 3.5 µM
- reduction of Nap1 expression (Nap1): more variable
